Results as given in ChEMBL document CHEMBL5352439, “Design, synthesis, biological evaluation and molecular docking study of novel urea-based benzamide derivatives as potent poly(ADP-ribose) polymerase-1 (PARP-1) inhibitors” (Eur J Med Chem, 2022).

Tests used:
[1] = tested on: HCT-116; assay: Induction of apoptosis in human HCT-116 cells assessed as necrotic cells at 7.5 uM incubated for 48 hrs by Annexin-V and PI staining based flow cytometry analysis (reference value: 0.06%); type: functional
[2] = tested on: MDA-MB-231; assay: Antiproliferative activity against human MDA-MB-231 cells assessed as inhibition of cell growth at 20 uM incubated for 48 hrs by MTT assay; type: functional
[3] = tested on: HCT-116; assay: Induction of apoptosis in human HCT-116 cells assessed as viable cells at 15 uM incubated for 48 hrs by Annexin-V and PI staining based flow cytometry analysis (reference value: 98.60%); type: functional; conditions: read-out: Activity
[4] = tested on: A549; assay: Antiproliferative activity against human A549 cells assessed as inhibition of cell growth incubated for 48 hrs by MTT assay; type: functional, cell-based; conditions: A549, 48 h
[5] = tested on: HCT-116; assay: Induction of apoptosis in human HCT-116 cells assessed as viable cells at 3.75 uM incubated for 48 hrs by Annexin-V and PI staining based flow cytometry analysis (reference value: 98.60%); type: functional; conditions: read-out: Activity
[6] = tested on: HCT-116; assay: Inhibition of colony formation in human HCT-116 cells at 10 uM measured every 3 days for 14 days by crystal violet staining based assay; type: functional; conditions: HCT-116, 336 h, time 14 day
[7] = tested on: HCT-116; assay: Induction of apoptosis in human HCT-116 cells assessed as necrotic cells at 3.75 uM incubated for 48 hrs by Annexin-V and PI staining based flow cytometry analysis (reference value: 0.06%); type: functional
[8] = tested on: HCT-116; assay: Induction of cell cycle arrest in human HCT-116 cells assessed as decrease in cells at G0/G1 phase at 7.5 to 10 uM incubated for 48 hrs by propidium iodide staining based flow cytometry analysis (reference value: 66.42 %); type: functional; parameters: scale not given: the % may be the effect or the level left; conditions: dose 7.5-10 µM
[9] = tested on: HCT-116; assay: Induction of apoptosis in human HCT-116 cells assessed as late apoptotic cells at 15 uM incubated for 48 hrs by Annexin-V and PI staining based flow cytometry analysis (reference value: 0.06%); type: functional
[10] = tested on: L02; assay: Antiproliferative activity against human L02 cells assessed as inhibition of cell growth […] incubated for 48 hrs by MTT assay; type: functional, cell-based; conditions: L02, 48 h
[11] = tested on: HCT-116; assay: Inhibition of cell migration in human HCT-116 cells at 7.5 uM incubated for 24 hrs by wound healing assay (reference value: 32.0 %); type: functional
[12] = tested on: HCT-116; assay: Inhibition of colony formation in human HCT-116 cells at 7.5 uM measured every 3 days for 14 days by crystal violet staining based assay; type: functional; conditions: HCT-116, 336 h, time 14 day
[13] = tested on: HCT-116; assay: Induction of cell cycle arrest in human HCT-116 cells assessed as accumulation of cells at G2/M phase at 7.5 to 10 uM incubated for 48 hrs by propidium iodide staining based flow cytometry analysis (reference value: 27.84 %); type: functional; conditions: dose 7.5-10 µM
[14] = tested on: HCT-116; assay: Antiproliferative activity against human HCT-116 cells assessed as inhibition of cell growth at 20 uM incubated for 48 hrs by MTT assay; type: functional
[15] = tested on: HeLa; assay: Antiproliferative activity against human HeLa cells assessed as inhibition of cell growth at 20 uM incubated for 48 hrs by MTT assay; type: functional
[16] = tested on: HCT-116; assay: Induction of apoptosis in human HCT-116 cells assessed as necrotic cells at 15 uM incubated for 48 hrs by Annexin-V and PI staining based flow cytometry analysis (reference value: 0.06%); type: functional
[17] = tested on: HCT-116; assay: Induction of apoptosis in human HCT-116 cells assessed as viable cells at 7.5 uM incubated for 48 hrs by Annexin-V and PI staining based flow cytometry analysis (reference value: 98.60%); type: functional; conditions: read-out: Activity
[18] = tested on: HCT-116; assay: Induction of apoptosis in human HCT-116 cells assessed as late apoptotic cells at 3.75 uM incubated for 48 hrs by Annexin-V and PI staining based flow cytometry analysis (reference value: 0.06%); type: functional
[19] = tested on: HCT-116; assay: Inhibition of colony formation in human HCT-116 cells measured every 3 days for 14 days by crystal violet staining based assay; type: functional, cell-based; conditions: dose 1.88-15 µM, time 14.0 day
[20] = tested on: A549; assay: Antiproliferative activity against human A549 cells assessed as inhibition of cell growth at 20 uM incubated for 48 hrs by MTT assay; type: functional
[21] = tested on: HCT-116; assay: Induction of apoptosis in human HCT-116 cells assessed as early apoptotic cells at 3.75 uM incubated for 48 hrs by Annexin-V and PI staining based flow cytometry analysis (reference value: 1.26%); type: functional
[22] = tested on: HCT-116; assay: Inhibition of cell migration in human HCT-116 cells at 15 uM incubated for 48 hrs by wound healing assay (reference value: 42.8 %); type: functional
[23] = tested on: A-375; assay: Antiproliferative activity against human A-375 cells assessed as inhibition of cell growth incubated for 48 hrs by MTT assay; type: functional, cell-based; conditions: A-375, 48 h
[24] = tested on: HeLa; assay: Antiproliferative activity against human HeLa cells assessed as inhibition of cell growth incubated for 48 hrs by MTT assay; type: functional, cell-based
[25] = target: Poly [ADP-ribose] polymerase 1 (Homo sapiens, UniProt P09874); assay: Inhibition of PARP1 (unknown origin) by ELISA
[26] = tested on: HCT-116; assay: Induction of apoptosis in human HCT-116 cells assessed as early apoptotic cells at 7.5 uM incubated for 48 hrs by Annexin-V and PI staining based flow cytometry analysis (reference value: 1.26%); type: functional
[27] = tested on: MDA-MB-231; assay: Antiproliferative activity against human MDA-MB-231 cells assessed as inhibition of cell growth incubated for 48 hrs by MTT assay; type: functional, cell-based; conditions: MDA-MB-231, 48 h
[28] = tested on: HCT-116; assay: Inhibition of cell migration in human HCT-116 cells at 7.5 uM incubated for 48 hrs by wound healing assay (reference value: 42.8 %); type: functional
[29] = tested on: A-375; assay: Antiproliferative activity against human A-375 cells assessed as inhibition of cell growth at 20 uM incubated for 48 hrs by MTT assay; type: functional
[30] = tested on: HCT-116; assay: Induction of apoptosis in human HCT-116 cells assessed as early apoptotic cells at 15 uM incubated for 48 hrs by Annexin-V and PI staining based flow cytometry analysis (reference value: 1.26%); type: functional
[31] = tested on: HCT-116; assay: Potency index, ratio of olaparib IC50 to test compound IC50 for antiproliferative activity against human HCT-116 cells; type: functional
[32] = tested on: HCT-116; assay: Inhibition of cell migration in human HCT-116 cells at 15 uM incubated for 24 hrs by wound healing assay (reference value: 32.0 %); type: functional
[33] = tested on: HCT-116; assay: Induction of apoptosis in human HCT-116 cells assessed as late apoptotic cells at 7.5 uM incubated for 48 hrs by Annexin-V and PI staining based flow cytometry analysis (reference value: 0.06%); type: functional

Chain of Poly [ADP-ribose] polymerase 1 (P09874 whole entry): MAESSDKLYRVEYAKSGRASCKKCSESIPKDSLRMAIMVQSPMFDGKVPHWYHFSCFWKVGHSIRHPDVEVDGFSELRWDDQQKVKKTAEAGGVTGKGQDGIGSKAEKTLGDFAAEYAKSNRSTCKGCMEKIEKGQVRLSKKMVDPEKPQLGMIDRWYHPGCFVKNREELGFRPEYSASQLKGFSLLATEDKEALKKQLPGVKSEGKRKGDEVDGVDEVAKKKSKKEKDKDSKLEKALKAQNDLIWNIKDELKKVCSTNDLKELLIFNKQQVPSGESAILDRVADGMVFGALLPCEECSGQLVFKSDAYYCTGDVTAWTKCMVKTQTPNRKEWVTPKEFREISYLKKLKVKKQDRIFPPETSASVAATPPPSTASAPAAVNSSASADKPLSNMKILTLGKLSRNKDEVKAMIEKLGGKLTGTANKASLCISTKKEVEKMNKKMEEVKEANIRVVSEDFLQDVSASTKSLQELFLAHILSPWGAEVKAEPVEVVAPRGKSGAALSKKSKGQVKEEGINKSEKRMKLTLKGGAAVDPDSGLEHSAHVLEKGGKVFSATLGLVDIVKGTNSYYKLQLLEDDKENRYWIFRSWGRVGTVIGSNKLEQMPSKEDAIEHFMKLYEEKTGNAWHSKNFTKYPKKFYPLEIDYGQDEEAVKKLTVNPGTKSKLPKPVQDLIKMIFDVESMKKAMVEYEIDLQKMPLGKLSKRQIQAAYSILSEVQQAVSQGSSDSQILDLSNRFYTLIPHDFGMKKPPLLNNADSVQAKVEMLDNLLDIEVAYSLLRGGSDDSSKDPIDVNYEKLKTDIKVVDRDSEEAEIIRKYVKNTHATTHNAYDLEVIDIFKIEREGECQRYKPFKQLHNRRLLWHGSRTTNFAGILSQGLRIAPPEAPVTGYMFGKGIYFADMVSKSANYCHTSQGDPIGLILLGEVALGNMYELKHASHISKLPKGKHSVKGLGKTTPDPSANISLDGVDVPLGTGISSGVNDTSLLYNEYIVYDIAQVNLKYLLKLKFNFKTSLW

For `NC(=O)c1ccccc1NCc1cccc(NC(=O)Nc2cccc(Br)c2)c1`, the Activity [1] was 0.1%, the inhibition at 20 µM [2] was 86.8% and the viability at 15 µM [3] was 54.5%. It also gave an IC50 [4] of 12.4 µM, a viability at 3.75 µM [5] of 89.8% and an inhibition at 10 µM [6] of 100%. It also gave an Activity [7] of 0.1%, an Activity [8] of 55.94% and an Activity [9] of 2.2%. The IC50 [10] was 100 µM, the inhibition at 7.5 µM [11] was 21% and the inhibition at 7.5 µM [12] was 100%. For the same molecule, the Activity [13] was 34.6%, the inhibition at 20 µM [14] was 91% and the inhibition at 20 µM [15] was 72.2%. It also gave an Activity [16] of 0.43%, a viability at 7.5 µM [17] of 86.3% and an Activity [18] of 0.29%. For the same molecule, the inhibition [19] was “Dose-Dependent Effect”, the inhibition at 20 µM [20] was 78.8% and the Activity [21] was 9.81%. It also gave an inhibition at 15 µM [22] of 24.2%, an IC50 [23] of 15.1 µM and an IC50 [24] of 14.3 µM. For the same molecule, the IC50 [25] was 0.00517 µM, the Activity [26] was 12.93% and the IC50 [27] was 13.7 µM. It also gave an inhibition at 7.5 µM [28] of 23.3%, an inhibition at 20 µM [29] of 81.8% and an Activity [30] of 42.85%. The “Ratio IC50” value [31] was 7.87, the inhibition at 15 µM [32] was 14.7% and the Activity [33] was 0.7%.
